Laboratory results reported in ChEMBL document CHEMBL1955732, “Synthesis and biological evaluation of 21-arylidenepregnenolone derivatives as neuroprotective agents” (Bioorg Med Chem Lett, 2012).
The source made the active and inactive calls. No cut-off for these calls is given here.

Columns and labels:
[1] = system: PC-12; assay: Neuroprotective activity against Abeta25-35-induced […] cells assessed as cell viability at 10 uM preincubated for 2 hrs prior Abeta25-35 challenge measured after 24 hrs by MTT assay; type: functional; conditions: Rattus norvegicus; for viability at 10 µM: read-out: Activity
[2] = system: PC-12; assay: Neuroprotective activity against Abeta25-35-induced […] cells assessed as cell viability at 1 uM preincubated for 2 hrs prior Abeta25-35 challenge measured after 24 hrs by MTT assay; type: functional; conditions: Rattus norvegicus; for viability at 1 µM: read-out: Activity
[3] = system: PC-12; assay: Cytotoxicity against […] cells at 10 uM after 24 hrs by MTT assay; type: cell-based; conditions: rat, pc-12, 24 h
[4] = system: PC-12; assay: Cytotoxicity against […] cells at 1 uM after 24 hrs by MTT assay; type: cell-based; conditions: rat, pc-12, 24 h

Structure (SMILES)	viability at 10 µM [1]	Activity [2]	Activity [3]	Activity [4]	viability at 1 µM [2]	Activity [1]
C[C@]12CC[C@H]3[C@@H](C[C@@H]4O[C@@]45C[C@@H](O)CC[C@]35C)[C@@H]1CC[C@@H]2C(=O)/C=C/c1ccc(F)cc1	47.6%	inactive	Toxic	–	–	–
COc1cccc(/C=C/C(=O)[C@H]2CC[C@H]3[C@@H]4CC=C5C[C@@H](O)CC[C@]5(C)[C@H]4CC[C@]23C)c1	44%	–	Toxic	Toxic	50.3%	–
CCOc1ccc(/C=C/C(=O)[C@H]2CC[C@H]3[C@@H]4C[C@@H]5O[C@@]56C[C@@H](O)CC[C@]6(C)[C@H]4CC[C@]23C)cc1OC	–	–	–	–	61.1%	inactive
CC(=O)[C@H]1CC[C@H]2[C@@H]3C[C@@H]4O[C@@]45C[C@@H](O)CC[C@]5(C)[C@H]3CC[C@]12C	–	inactive	–	–	–	inactive
COc1ccc(/C=C/C(=O)[C@H]2CC[C@H]3[C@@H]4CC=C5C[C@@H](O)CC[C@]5(C)[C@H]4CC[C@]23C)cc1	25.7%	inactive	Toxic	–	–	–
C[C@]12CC[C@H]3[C@@H](C[C@@H]4O[C@@]45C[C@@H](O)CC[C@]35C)[C@@H]1CC[C@@H]2C(=O)/C=C/c1ccc(Cl)cc1Cl	6%	inactive	Toxic	–	–	–
CC(=O)[C@H]1CC[C@H]2[C@@H]3CC=C4C[C@@H](O)CC[C@]4(C)[C@H]3CC[C@]12C	–	inactive	–	–	–	inactive
C[C@]12CC[C@H]3[C@@H](CC=C4C[C@@H](O)CC[C@@]43C)[C@@H]1CC[C@@H]2C(=O)/C=C/c1ccc(F)cc1	32.6%	inactive	Toxic	–	–	–
C[C@]12CC[C@H]3[C@@H](CC=C4C[C@@H](O)CC[C@@]43C)[C@@H]1CC[C@@H]2C(=O)/C=C/c1ccccn1	–	inactive	–	–	–	inactive
COc1ccc(/C=C/C(=O)[C@H]2CC[C@H]3[C@@H]4C[C@@H]5O[C@@]56C[C@@H](O)CC[C@]6(C)[C@H]4CC[C@]23C)cc1	29.6%	inactive	Toxic	–	–	–
C[C@]12CC[C@H]3[C@@H](C[C@@H]4O[C@@]45C[C@@H](O)CC[C@]35C)[C@@H]1CC[C@@H]2C(=O)/C=C/c1cccc([N+](=O)[O-])c1	31.3%	inactive	Toxic	–	–	–
CCOc1ccc(/C=C/C(=O)[C@H]2CC[C@H]3[C@@H]4CC=C5C[C@@H](O)CC[C@]5(C)[C@H]4CC[C@]23C)cc1OC	26.7%	inactive	Toxic	–	–	–
C[C@]12CC[C@H]3[C@@H](CC=C4C[C@@H](O)CC[C@@]43C)[C@@H]1CC[C@@H]2C(=O)/C=C/c1ccccc1	29%	inactive	Toxic	–	–	–
C[C@]12CC[C@H]3[C@@H](C[C@@H]4O[C@@]45C[C@@H](O)CC[C@]35C)[C@@H]1CC[C@@H]2C(=O)/C=C/c1ccc(C#N)cc1	–	inactive	–	–	–	inactive
C[C@]12CC[C@H]3[C@@H](C[C@@H]4O[C@@]45C[C@@H](O)CC[C@]35C)[C@@H]1CC[C@@H]2C(=O)/C=C/c1ccccc1	70.5%	–	–	–	64.8%	–
C[C@]12CC[C@H]3[C@@H](CC=C4C[C@@H](O)CC[C@@]43C)[C@@H]1CC[C@@H]2C(=O)/C=C/c1ccccc1F	38.3%	–	Toxic	Toxic	53.1%	–

Structure (SMILES)	viability at 10 µM [1]	Activity [2]	Activity [3]	Activity [4]	viability at 1 µM [2]	Activity [1]
CC(C)c1ccc(/C=C/C(=O)[C@H]2CC[C@H]3[C@@H]4CC=C5C[C@@H](O)CC[C@]5(C)[C@H]4CC[C@]23C)cc1	34.9%	inactive	Toxic	–	–	–
CCOc1ccccc1/C=C/C(=O)[C@H]1CC[C@H]2[C@@H]3CC=C4C[C@@H](O)CC[C@]4(C)[C@H]3CC[C@]12C	–	inactive	–	–	–	inactive
COc1cccc(/C=C/C(=O)[C@H]2CC[C@H]3[C@@H]4C[C@@H]5O[C@@]56C[C@@H](O)CC[C@]6(C)[C@H]4CC[C@]23C)c1	–	inactive	–	–	–	inactive
C[C@]12CC[C@H]3[C@@H](C[C@@H]4O[C@@]45C[C@@H](O)CC[C@]35C)[C@@H]1CC[C@@H]2C(=O)/C=C/c1ccc(Cl)cc1	39.1%	inactive	Toxic	–	–	–
C[C@]12CC[C@H]3[C@@H](C[C@@H]4O[C@@]45C[C@@H](O)CC[C@]35C)[C@@H]1CC[C@@H]2C(=O)/C=C/c1ccccc1C(F)(F)F	–	inactive	–	–	–	inactive
C[C@]12CC[C@H]3[C@@H](C[C@@H]4O[C@@]45C[C@@H](O)CC[C@]35C)[C@@H]1CC[C@@H]2C(=O)/C=C/c1ccccc1F	36.7%	inactive	Toxic	–	–	–
CC(C)c1ccc(/C=C/C(=O)[C@H]2CC[C@H]3[C@@H]4C[C@@H]5O[C@@]56C[C@@H](O)CC[C@]6(C)[C@H]4CC[C@]23C)cc1	49.8%	inactive	Toxic	–	–	–
C[C@]12CC[C@H]3[C@@H](C[C@@H]4O[C@@]45C[C@@H](O)CC[C@]35C)[C@@H]1CC[C@@H]2C(=O)/C=C/c1ccccn1	29.7%	inactive	Toxic	–	–	–
O=C(O[C@@H]1Cc2c(O)cc(O)cc2O[C@@H]1c1cc(O)c(O)c(O)c1)c1cc(O)c(O)c(O)c1 [EPIGALOCATECHIN GALLATE]	65.4%	–	–	–	–	–
C[C@]12CC[C@H]3[C@@H](C[C@@H]4O[C@@]45C[C@@H](O)CC[C@]35C)[C@@H]1CC[C@@H]2C(=O)/C=C/c1ccco1	82.7%	inactive	–	–	–	–
C[C@]12CC[C@H]3[C@@H](CC=C4C[C@@H](O)CC[C@@]43C)[C@@H]1CC[C@@H]2C(=O)/C=C/c1ccc(Cl)cc1Cl	34.5%	inactive	Toxic	–	–	–
C[C@]12CC[C@H]3[C@@H](CC=C4C[C@@H](O)CC[C@@]43C)[C@@H]1CC[C@@H]2C(=O)/C=C/c1ccccc1Br	–	inactive	–	–	–	inactive
C[C@]12CC[C@H]3[C@@H](C[C@@H]4O[C@@]45C[C@@H](O)CC[C@]35C)[C@@H]1CC[C@@H]2C(=O)/C=C/c1ccccc1Br	61.2%	inactive	–	–	–	–
C[C@]12CC[C@H]3[C@@H](CC=C4C[C@@H](O)CC[C@@]43C)[C@@H]1CC[C@@H]2C(=O)/C=C/c1ccccc1C(F)(F)F	–	inactive	–	–	–	inactive
Cc1ccccc1/C=C/C(=O)[C@H]1CC[C@H]2[C@@H]3C[C@@H]4O[C@@]45C[C@@H](O)CC[C@]5(C)[C@H]3CC[C@]12C	49.9%	inactive	Toxic	–	–	–
